Measurements as given in PubChem BioAssay AID256 (DTP/NCI, 2004).
Toxic doses and inconclusive results are not listed.

Test system: CD2F1 mice, L1210 leukemia ip, survival T/C
Assay: NCI In Vivo Anticancer Drug Screen. Data for tumor model L1210 Leukemia (intraperitoneal) in CD2F1 (CDF1) mice
Settings: higher = longer survival
Outline: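 Vehicle-treated tumor-bearing mice served as controls (C) for compound-treated mice (T). Reported figure is T divided by C.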

[1] = endpoint: mean survival time, dose: 100.0 mg/kg/injection, schedule: Q01DX009 (ip), vehicle: saline with Tween-80
[2] = endpoint: mean survival time, dose: 100.0 mg/kg/injection, schedule: Q04DX003 (ip), vehicle: saline with Tween-80
[3] = endpoint: mean survival time, dose: 200.0 mg/kg/injection, schedule: Q01DX009 (ip), vehicle: saline with Tween-80
[4] = endpoint: mean survival time, dose: 200.0 mg/kg/injection, schedule: Q04DX003 (ip), vehicle: saline with Tween-80
[5] = endpoint: mean survival time, dose: 400.0 mg/kg/injection, schedule: Q01DX009 (ip), vehicle: saline with Tween-80
[6] = endpoint: mean survival time, dose: 400.0 mg/kg/injection, schedule: Q04DX003 (ip), vehicle: saline with Tween-80
[7] = endpoint: mean survival time, dose: 100.0 mg/kg/injection, schedule: Q04DX003 (ip), vehicle: saline
[8] = endpoint: mean survival time, dose: 200.0 mg/kg/injection, schedule: Q04DX003 (ip), vehicle: saline
[9] = endpoint: mean survival time, dose: 400.0 mg/kg/injection, schedule: Q04DX003 (ip), vehicle: saline

Cc1ccc(C(=O)Nc2ncn(C3CC(O)C(CO)O3)c(=O)n2)cc1 (stereo unspecified)
T/C (endpoint: mean survival time, dose: 1.56 mg/kg/injection, schedule: Q01DX005 (ip), vehicle: saline with Tween-80): 116 % of control
T/C (endpoint: mean survival time, dose: 3.13 mg/kg/injection, schedule: Q01DX005 (ip), vehicle: saline with Tween-80): 154 % of control
T/C (endpoint: mean survival time, dose: 6.25 mg/kg/injection, schedule: Q01DX005 (ip), vehicle: saline with Tween-80): 276 % of control
T/C (endpoint: mean survival time, dose: 12.5 mg/kg/injection, schedule: Q01DX005 (ip), vehicle: saline with Tween-80): 244 % of control
T/C (endpoint: mean survival time, dose: 50.0 mg/kg/injection, schedule: Q01DX005 (ip), vehicle: saline with Tween-80): 92 % of control

COc1cc(NC(=O)Nc2ccccc2OC)c(OC)cc1Cl
T/C (endpoint: mean survival time, dose: 100.0 mg/kg/injection, schedule: Q04DX002 (ip), vehicle: saline with Tween-80): 90 % of control
T/C (endpoint: mean survival time, dose: 200.0 mg/kg/injection, schedule: Q04DX002 (ip), vehicle: saline with Tween-80): 93 % of control
T/C (endpoint: mean survival time, dose: 400.0 mg/kg/injection, schedule: Q04DX002 (ip), vehicle: saline with Tween-80): 107 % of control

CC[N+](C)(CC)CCOC(=O)c1ccccc1Oc1ccc(C)cc1
T/C (endpoint: mean survival time, dose: 25.0 mg/kg/injection, schedule: Q01DX009 (ip), vehicle: saline): 107 % of control
T/C (endpoint: mean survival time, dose: 50.0 mg/kg/injection, schedule: Q01DX009 (ip), vehicle: saline): 107 % of control

O/N=C/C1CCCC[N-]1.O/N=C/C1CCCC[N-]1.O/N=C/C1CCCC[N-]1.[Cu] (stereo unspecified)
T/C (endpoint: median survival time, dose: 0.75 mg/kg/injection, schedule: Q03HX024 (ip), vehicle: saline): 95 % of control
T/C (endpoint: median survival time, dose: 1.5 mg/kg/injection, schedule: Q03HX024 (ip), vehicle: saline): 95 % of control
T/C (endpoint: median survival time, dose: 6.0 mg/kg/injection, schedule: Q03HX024 (ip), vehicle: saline): 104 % of control
T/C (endpoint: median survival time, dose: 8.0 mg/kg/injection, schedule: Q03HX024 (ip), vehicle: saline): 179 % of control

O=C1CCCCCCCCCCC1C(O)(C(F)(F)F)C(F)(F)F (stereo unspecified)
T/C [1]: 96 % of control
T/C [2]: 91 % of control
T/C [3]: 101 % of control
T/C [4]: 95 % of control
T/C [5]: 96 % of control
T/C [6]: 91 % of control

NCc1cnc(N)nc1N
T/C [2]: 98 % of control
T/C [4]: 102 % of control

CCCCCCCCCC1=NC(C)(C)CN1CC(C)O (stereo unspecified)
T/C (endpoint: mean survival time, dose: 5.0 mg/kg/injection, schedule: Q01DX009 (ip), vehicle: saline with Tween-80): 91 % of control
T/C (endpoint: mean survival time, dose: 10.0 mg/kg/injection, schedule: Q01DX009 (ip), vehicle: saline with Tween-80): 102 % of control
T/C (endpoint: mean survival time, dose: 20.0 mg/kg/injection, schedule: Q01DX009 (ip), vehicle: saline with Tween-80): 91 % of control

CCNC(=O)N1CC2CCC(C1)N2C
T/C [7]: 101 % of control
T/C [8]: 96 % of control
T/C [9]: 90 % of control

Cn1c2nc(=O)n(-c3ccccc3)c(=O)c-2nc2c1CCCC2
T/C (endpoint: mean survival time, dose: 3.12 mg/kg/injection, schedule: Q01DX009 (ip), vehicle: saline with Tween-80): 100 % of control
T/C (endpoint: mean survival time, dose: 6.25 mg/kg/injection, schedule: Q01DX009 (ip), vehicle: saline with Tween-80): 100 % of control
T/C (endpoint: mean survival time, dose: 12.5 mg/kg/injection, schedule: Q01DX009 (ip), vehicle: saline with Tween-80): 98 % of control
T/C (endpoint: mean survival time, dose: 25.0 mg/kg/injection, schedule: Q01DX009 (ip), vehicle: saline with Tween-80): 101 % of control
T/C (endpoint: mean survival time, dose: 50.0 mg/kg/injection, schedule: Q01DX009 (ip), vehicle: saline with Tween-80): 100 % of control
T/C [1]: 106 % of control

O=P(OCc1ccccc1)(N(CCCl)CCCl)N1CCN(P(=O)(OCc2ccccc2)N(CCCl)CCCl)CC1 (stereo unspecified)
T/C (endpoint: mean survival time, dose: 128.0 mg/kg/injection, schedule: Q01DX Z (ip), vehicle: saline): 104 % of control
T/C (endpoint: mean survival time, dose: 256.0 mg/kg/injection, schedule: Q01DX Z (ip), vehicle: saline): 107 % of control
T/C (endpoint: mean survival time, dose: 512.0 mg/kg/injection, schedule: Q01DX Z (ip), vehicle: saline): 113 % of control

CCCCCCCCCCCCCCCCC1CCCC1C1CCCC1 (stereo unspecified)
T/C (endpoint: mean survival time, dose: 100.0 mg/kg/injection, schedule: Q01DX001 (ip), vehicle: saline sonified): 102 % of control
T/C (endpoint: mean survival time, dose: 200.0 mg/kg/injection, schedule: Q01DX001 (ip), vehicle: saline sonified): 101 % of control
T/C (endpoint: mean survival time, dose: 400.0 mg/kg/injection, schedule: Q01DX001 (ip), vehicle: saline sonified): 96 % of control

O=P(Oc1cccc(Br)c1)(Oc1cccc(Br)c1)c1ccccc1
T/C [2]: 98 % of control
T/C [4]: 106 % of control
T/C [6]: 108 % of control

ICC12CCC1(CI)COC2 (stereo unspecified)
T/C [7]: 96 % of control
T/C [8]: 96 % of control
T/C [9]: 93 % of control

CN1C(=O)C2C(N=C(c3ccccc3)N2O)N(C)C1=O (stereo unspecified)
T/C (endpoint: mean survival time, dose: 12.5 mg/kg/injection, schedule: Q01DX005 (ip), vehicle: other): 93 % of control
T/C (endpoint: mean survival time, dose: 25.0 mg/kg/injection, schedule: Q01DX005 (ip), vehicle: other): 93 % of control
T/C (endpoint: mean survival time, dose: 50.0 mg/kg/injection, schedule: Q01DX005 (ip), vehicle: other): 90 % of control
T/C (endpoint: mean survival time, dose: 100.0 mg/kg/injection, schedule: Q01DX005 (ip), vehicle: other): 97 % of control
T/C (endpoint: mean survival time, dose: 200.0 mg/kg/injection, schedule: Q01DX005 (ip), vehicle: other): 98 % of control

CCOC(=O)C([NH-])C([NH-])C(=O)OCC.[Cl][Pt+2][Cl] (stereo unspecified)
T/C (endpoint: mean survival time, dose: 12.5 mg/kg/injection, schedule: Q04DX003 (ip), vehicle: saline with Tween-80): 186 % of control
T/C (endpoint: mean survival time, dose: 25.0 mg/kg/injection, schedule: Q04DX003 (ip), vehicle: saline with Tween-80): 195 % of control

ClCC(CCl)N1CCCCC1
T/C (endpoint: mean survival time, dose: 6.25 mg/kg/injection, schedule: Q01DX001 (ip), vehicle: saline): 103 % of control
T/C (endpoint: mean survival time, dose: 6.25 mg/kg/injection, schedule: Q01DX009 (ip), vehicle: saline sonified): 102 % of control
T/C (endpoint: mean survival time, dose: 6.25 mg/kg/injection, schedule: Q04DX003 (ip), vehicle: saline): 101 % of control
T/C (endpoint: mean survival time, dose: 12.5 mg/kg/injection, schedule: Q01DX001 (ip), vehicle: saline): 104 % of control
T/C (endpoint: mean survival time, dose: 12.5 mg/kg/injection, schedule: Q01DX009 (ip), vehicle: saline sonified): 109 % of control
T/C (endpoint: mean survival time, dose: 12.5 mg/kg/injection, schedule: Q04DX003 (ip), vehicle: saline): 104 % of control
T/C (endpoint: mean survival time, dose: 25.0 mg/kg/injection, schedule: Q01DX001 (ip), vehicle: saline): 107 % of control
T/C (endpoint: mean survival time, dose: 25.0 mg/kg/injection, schedule: Q04DX003 (ip), vehicle: saline): 106 % of control

COC1=C(C)C(=O)C2=C(C1=O)C(COC(N)=O)C(=O)C1NC1CN2C (stereo unspecified)
T/C (endpoint: mean survival time, dose: 4.7 mg/kg/injection, schedule: Q01DX001 (ip), vehicle: carboxymethylcellulose (CMC)): 110 % of control

CNCCc1ccc2cc(OC)c(OC)cc2c1
T/C (endpoint: mean survival time, dose: 25.0 mg/kg/injection, schedule: Q01DX009 (ip), vehicle: saline sonified): 104 % of control
T/C (endpoint: mean survival time, dose: 50.0 mg/kg/injection, schedule: Q01DX009 (ip), vehicle: saline sonified): 104 % of control
T/C (endpoint: mean survival time, dose: 100.0 mg/kg/injection, schedule: Q01DX009 (ip), vehicle: saline sonified): 104 % of control

O=C(C/C(=N\N(C(=O)c1ccccc1)c1ccccc1)c1ccccc1)c1ccccc1
T/C [2]: 92 % of control
T/C [4]: 97 % of control
T/C [6]: 100 % of control

CC(O)COCCOCCO (stereo unspecified)
T/C (endpoint: mean survival time, dose: 100.0 mg/kg/injection, schedule: Q01DX009 (ip), vehicle: saline): 100 % of control
T/C (endpoint: mean survival time, dose: 200.0 mg/kg/injection, schedule: Q01DX009 (ip), vehicle: saline): 103 % of control
T/C (endpoint: mean survival time, dose: 400.0 mg/kg/injection, schedule: Q01DX009 (ip), vehicle: saline): 100 % of control

O=C1CNC(=O)N1c1cccc(Cl)c1
T/C [1]: 96 % of control
T/C [3]: 92 % of control

O=C(Nc1ccc2ccccc2c1)c1ccc(Cl)cc1Cl
T/C [2]: 96 % of control
T/C [4]: 98 % of control
T/C [6]: 95 % of control

O=C(c1ccc(Cl)cc1)C1CC(Br)C(Br)CC1C(=O)c1ccc(Cl)cc1 (stereo unspecified)
T/C [1]: 96 % of control
T/C [2]: 101 % of control
T/C [3]: 98 % of control
T/C [4]: 98 % of control
T/C [5]: 100 % of control
T/C [6]: 98 % of control

O=C(C(Cl)Cl)N(O)c1ccccc1OCc1ccccc1
T/C [2]: 105 % of control
T/C [4]: 103 % of control
T/C [6]: 103 % of control

CCCCC/C(C)=C(\C)c1cc(OC)cc(OC)c1
T/C [1]: 103 % of control
T/C [3]: 106 % of control
T/C [5]: 91 % of control

O=C1C2CCCCC2C(=O)N1c1cccc2cccnc12 (stereo unspecified)
T/C (endpoint: mean survival time, dose: 50.0 mg/kg/injection, schedule: Q01DX001 (ip), vehicle: saline with Tween-80): 98 % of control
T/C (endpoint: mean survival time, dose: 100.0 mg/kg/injection, schedule: Q01DX001 (ip), vehicle: saline with Tween-80): 95 % of control
T/C (endpoint: mean survival time, dose: 200.0 mg/kg/injection, schedule: Q01DX001 (ip), vehicle: saline with Tween-80): 95 % of control
